According to patent publication US7371529B2, “Methods and compositions for modulating gluconeogenesis using PGC-1” (Dana-Farber Cancer Institute, Inc., priority 2001, dated 2008):
Blank lines part the entries; values can stand above or below the molecule they belong to.

Legend:
PGC-1 = assay: STZ-diabetic mouse, liver PGC-1 (Northern); assay type: in vivo; details: STZ-diabetic mice, after 10 days
Procedure: For the feeding experiments, male mice were either allowed free access to food or subjected to a 24 hour fast and sacrificed at the end of 24 hours. A third group was fasted for 24 hours and then fed ad libitum for another 24 hours prior to sacrifice. For the STZ-diabetic mouse experiments, 6-8 week old male mice (n=3 per group) were injected intraperitoneally for three consecutive days with either sodium citrate solution or streptozotocin ([…] of body weight per injection). Animals were sacrificed after 10 days, at which point the mean blood glucose in the STZ-treated group rose to over 400 mg/dl. For the LIRKO mouse experiments, two-month-old female control (lox/lox) or LIRKO mice were divided into three groups (n=2 each) and subjected to the standard feeding protocol as described above.
Total RNA was prepared from cells or tissues with Trizol (Life Technologies) according to the manufacturer's instructions. Ten to twenty micrograms of total RNA was fractionated in a 1% agarose-formaldehyde gel, transferred onto nylon, and hybridized with cDNA probes labeled by random-primed labeling (Boehringer Mannheim) with [-^32P]-dCTP, using methods known in the art. […]

[1] = system: G6 Pase, PEPCK and PGC-1 mRNA; assay: Insulin effect on mRNA levels and PGC-1 function in cultured liver cells; assay type: cell-based; details: for PGC-1 induced expression of PEPCK and glucose-6-phosphatase: cultured liver cells
Description: This example describes experiments designed to determine whether insulin acts directly to suppress PGC-1 expression or function. The levels of PGC-1 mRNA were first examined in cells treated with various combinations of insulin, forskolin, and dexamethasone.
However, PGC-1 function is negatively regulated by insulin in cultured liver cells. […] FKHR is regulated directly by Akt via phosphorylation. Stimulation by insulin results in activation of Akt, which phosphorylates FKHR, which in turn inactivates FKHR by causing it to exit the nucleus. Insulin treatment downregulates the ability of PGC-1 to induce the gluconeogenic genes PEPCK and glucose-6-phosphatase. PGC-1 induced expression of the genes was […] when a constitutively active FKHR was used, while a dominant-negative FKHR also downregulates the ability of PGC-1 to induce these genes, even in the absence of insulin.

FKHR [2] = assay: 3×IRS promoter-luciferase reporter, FKHR coactivation; assay type: cell-based; details: PGC-1 cotransfected with wild-type or mutant FKHR
FKHR [3] = assay: G6 Pase promoter-reporter, FKHR coactivation; assay type: cell-based; details: PGC-1 cotransfected with FKHR

Molecule: CN(N=O)C(=O)N[C@H]1C(O)O[C@H](CO)[C@@H](O)[C@@H]1O (mixture of isomers) [streptozotocin]
PGC-1 in liver (Northern) (PGC-1): consistently increased

Molecule: insulin
G6 Pase mRNA levels [1]: downregulated
PGC-1 mRNA levels [1]: do not change
PGC-1 induced expression of PEPCK and glucose-6-phosphatase [1]: downregulates

activation of 3×IRS promoter-luciferase reporter (FKHR [2]): increased activation
coactivation on wild type G6 Pase promoter-reporter (FKHR [3]): further increased
B1: constitutively active FKHR: FKHR with three phosphorylatable amino acids changed to alanine (protein, UniProt Q12778 1-655, looked up, variant T24A S256A S319A)
Forkhead box protein O1: MAEAPQVVEIDPDFEPLPRPRSCAWPLPRPEFSQSNSATSSPAPSGSAAANPDAAAGLPSASAAAVSADFMSNLSLLEESEDFPQAPGSVAAAVAAAAAAAATGGLCGDFQGPEAGCLHPAPPQPPPPGPLSQHPPVPPAAAGPLAGQPRKSSSSRRNAWGNLSYADLITKAIESSAEKRLTLSQIYEWMVKSVPYFKDKGDSNSSAGWKNSIRHNLSLHSKFIRVQNEGTGKSSWWMLNPEGGKSGKSPRRRAAAMDNNSKFAKSRSRAAKKKASLQSGQEGAGDSPGSQFSKWPASPGSHSNDDFDNWSTFRPRTSANASTISGRLSPIMTEQDDLGEGDVHSMVYPPSAAKMASTLPSLSEISNPENMENLLDNLNLLSSPTSLTVSTQSSPGTMMQQTPCYSFAPPNTSLNSPSPNYQKYTYGQSSMSPLPQMPIQTLQDNKSSYGGMSQYNCAPGLLKELLTSDSPPHNDIMTPVDPGVAQPNSRVLGQNVMMGPNSVMSTYGSQASHNKMMNPSSHTHPGHAQQTSAVNGRPLPHTVSTMPHTSGMNRLTQVKTPVQVPLPHPMQMSALGGYSSVSSCNGYGRMGLLHQEKLPSDLDGMFIERLDCDMESIIRNDLMDGDTLDFNFDNVLPNQSFPHSVKTTTHSWVSG
PGC-1 induced expression of PEPCK and glucose-6-phosphatase [1]: unchanged
